A short description of assay [1]: Antifungal activity against Microsporum fulvum assessed as growth inhibition by standard broth dilution method. Format: functional. As to conditions: Arthroderma fulvum. Background: Dilution methods test growth across graded concentrations, often in twofold steps.
Another assay relates to Histoplasma capsulatum. The assay is described as follows: Antifungal activity against Histoplasma capsulatum assessed as growth inhibition by standard broth dilution method. Format: functional.
A further assay relates to Candida albicans. As to the kind of experiment: Antifungal activity against Candida albicans assessed as growth inhibition by standard broth dilution method. It is filed as functional, organism-based.
The test system of the next assay is Streptococcus pyogenes. As to the kind of experiment: Antifungal activity against Streptococcus pyogenes assessed as growth inhibition by standard broth dilution method. Format: functional.

In brackets after ≈: the same amount, converted by molar mass. Activity calls are given as the source filed them. The rule behind the calls is not given here. Bounds are passed on as bounds.

What is called MIC is the least concentration at which growth counts as inhibited.

Take `CC[C@H]1O[C@@H](/C(C)=C/[C@H](C)/C=C/[C@H]2[C@@H](C)[C@@H]2/C=C/[C@@H]2O[C@H](CC(=O)OC)C[C@H](OC(C)=O)[C@H]2OC(C)=O)CC=C1C` (relative stereo): the MIC in assay [1] was more than 50 µg/mL; in the assay with Histoplasma capsulatum, 12.5 µg/mL (≈ 21.8 µM). Besides, in the assay with Candida albicans, the inhibition entry was “inactive”. In addition, in the assay on Streptococcus pyogenes, the MIC entry is “inactive”.
With `CCCC(=O)O[C@H]1[C@H](/C=C/[C@H]2[C@H](C)[C@@H]2/C=C/[C@@H](C)/C=C(\C)[C@H]2CC=C(C)[C@@H](CC)O2)O[C@H](CC(=O)O)C[C@@H]1OC(=O)CCC`, the MIC in assay [1] is more than 50 µg/mL; in the assay with Histoplasma capsulatum it was 12.5 µg/mL (≈ 20.3 µM); with Streptococcus pyogenes it was 6.25 µg/mL (≈ 10.2 µM). In the assay with Candida albicans, the inhibition entry was “inactive”.
The corresponding values for `CC[C@H]1O[C@@H](/C(C)=C/[C@H](C)/C=C/[C@H]2[C@@H](C)[C@@H]2/C=C/[C@@H]2O[C@H](CC(=O)OC)C[C@H](OC(=O)Nc3ccc(Cl)cc3)[C@H]2OC(=O)Nc2ccc(Cl)cc2)CC=C1C` are more than 50 µg/mL, 50 µg/mL (≈ 62.8 µM), “inactive” and “inactive”.
The corresponding values for `CC[C@H]1O[C@@H](/C(C)=C/[C@H](C)/C=C/[C@H]2[C@@H](C)[C@@H]2/C=C/[C@@H]2O[C@H](CC(=O)N(C(=O)NC3CCCCC3)C3CCCCC3)C[C@H](O)[C@H]2O)CC=C1C` are more than 50 µg/mL, more than 50 µg/mL, “inactive” and “inactive”.
Take `CC[C@H]1O[C@@H](/C(C)=C/[C@H](C)/C=C/[C@H]2[C@@H](C)[C@@H]2/C=C/[C@@H]2O[C@H](CC(=O)OC)C[C@H](OC=O)[C@H]2OC=O)CC=C1C`: the results for the MIC (in assay [1]; in the assay on Histoplasma capsulatum) were 12.5 µg/mL (≈ 22.9 µM) and 3.12 µg/mL (≈ 5.73 µM), respectively. Besides, the inhibition result in the assay on Candida albicans is “inactive”. Further, in the assay on Streptococcus pyogenes, the MIC result was “inactive”.
In the case of `CC[C@H]1O[C@@H](/C(C)=C/[C@H](C)/C=C/[C@H]2[C@@H](C)[C@@H]2/C=C/[C@@H]2O[C@H](CC(=O)N3CCCC3)C[C@H](O)[C@H]2O)CC=C1C`, the MIC is 0.78 µg/mL (≈ 1.48 µM) in assay [1], 0.39 µg/mL (≈ 0.739 µM) in the assay on Histoplasma capsulatum and 3.12 µg/mL (≈ 5.91 µM) in the assay on Streptococcus pyogenes. Besides, the inhibition result with Candida albicans is “inactive”.
The corresponding values for `CC[C@H]1O[C@@H](/C(C)=C/[C@H](C)/C=C/[C@H]2[C@@H](C)[C@@H]2/C=C/[C@@H]2O[C@H](CC(=O)O)C[C@H](O)[C@H]2O)CC=C1C` (relative stereo) [AMBRUTICIN] are 0.098 µg/mL (≈ 0.206 µM), 0.195 µg/mL (≈ 0.411 µM), 25 µg/mL (≈ 52.7 µM) and “inactive”.
The corresponding values for `CC[C@H]1O[C@@H](/C(C)=C/[C@H](C)/C=C/[C@H]2[C@@H](C)[C@@H]2/C=C/[C@@H]2O[C@H](CC(=O)O)C[C@H](OC=O)[C@H]2OC=O)CC=C1C` are 1.56 µg/mL (≈ 2.94 µM), 1.56 µg/mL (≈ 2.94 µM), 25 µg/mL (≈ 47.1 µM) and “inactive”.
With `CCCCNC(=O)C[C@@H]1C[C@H](O)[C@@H](O)[C@H](/C=C/[C@H]2[C@H](C)[C@@H]2/C=C/[C@@H](C)/C=C(\C)[C@H]2CC=C(C)[C@@H](CC)O2)O1`, the MIC is 6.25 µg/mL (≈ 11.8 µM) in assay [1], 1.56 µg/mL (≈ 2.94 µM) with Histoplasma capsulatum and 1.56 µg/mL (≈ 2.94 µM) with Streptococcus pyogenes. The inhibition entry in the assay on Candida albicans is “inactive”.
Consider `CC[C@H]1O[C@@H](/C(C)=C/[C@H](C)/C=C/[C@H]2[C@@H](C)[C@@H]2/C=C/[C@@H]2O[C@H](CC(=O)OC)C[C@@H]3OC(=O)O[C@@H]23)CC=C1C` (relative stereo), for which the figures for the MIC (in assay [1]; in the assay with Histoplasma capsulatum) were 0.39 µg/mL (≈ 0.758 µM) and 0.78 µg/mL (≈ 1.52 µM), respectively. In addition, in the assay with Candida albicans, the inhibition entry was “inactive”. Also, the MIC result in the assay on Streptococcus pyogenes is “inactive”.
For the compound `CC[C@H]1O[C@@H](/C(C)=C/[C@H](C)/C=C/[C@H]2[C@@H](C)[C@@H]2/C=C/[C@@H]2O[C@H](CC(=O)N(C(=O)NC3CCCCC3)C3CCCCC3)C[C@H](OC(C)=O)[C@H]2OC(C)=O)CC=C1C`, the MIC (in assay [1]; with Histoplasma capsulatum) was more than 50 µg/mL each time. The inhibition result with Candida albicans is “inactive”. Further, in the assay on Streptococcus pyogenes, the MIC entry was “inactive”.
As to `CC[C@H]1O[C@@H](/C(C)=C/[C@H](C)/C=C/[C@H]2[C@@H](C)[C@@H]2/C=C/[C@@H]2O[C@H](CC(=O)NCc3ccccc3)C[C@H](O)[C@H]2O)CC=C1C`, the results for the MIC (in assay [1]; in the assay on Histoplasma capsulatum; in the assay with Streptococcus pyogenes) were more than 50 µg/mL, 6.25 µg/mL (≈ 11.1 µM) and 3.12 µg/mL (≈ 5.53 µM), respectively. For the same compound, in the assay with Candida albicans, the inhibition result is “inactive”.
The corresponding values for `CCC(=O)O[C@H]1[C@H](/C=C/[C@H]2[C@H](C)[C@@H]2/C=C/[C@@H](C)/C=C(\C)[C@H]2CC=C(C)[C@@H](CC)O2)O[C@H](CC(=O)O)C[C@@H]1OC(=O)CC` are more than 50 µg/mL, 6.25 µg/mL (≈ 10.7 µM), 6.25 µg/mL (≈ 10.7 µM) and “inactive”.
The like results for `CC[C@H]1O[C@@H](/C(C)=C/[C@H](C)/C=C/[C@H]2[C@@H](C)[C@@H]2/C=C/[C@@H]2O[C@H](CC(=O)OC)C[C@H](O)[C@H]2O)CC=C1C` (relative stereo) were, in that order, 0.39 µg/mL (≈ 0.798 µM), 0.39 µg/mL (≈ 0.798 µM), “inactive” and “inactive”.
Regarding `CC[C@H]1O[C@@H](/C(C)=C/[C@H](C)/C=C/[C@H]2[C@@H](C)[C@@H]2/C=C/[C@@H]2O[C@H](CC(=O)N3CCCCC3)C[C@H](OC(C)=O)[C@H]2OC(C)=O)CC=C1C`, the inhibition entry in the assay on Candida albicans is “inactive”.
The same measure, in the same setting: under `CC[C@H]1O[C@@H](/C(C)=C/[C@H](C)/C=C/[C@H]2[C@@H](C)[C@@H]2/C=C/[C@@H]2O[C@H](CC(=O)NCc3ccccc3)C[C@H](OC(C)=O)[C@H]2OC(C)=O)CC=C1C` stands “inactive”.
Consider `CC[C@H]1O[C@@H](/C(C)=C/[C@H](C)/C=C/[C@H]2[C@@H](C)[C@@H]2/C=C/[C@@H]2O[C@H](CC(=O)N3CCCC3)C[C@H](OC(C)=O)[C@H]2OC(C)=O)CC=C1C`, for which the MIC was more than 50 µg/mL in assay [1] and 50 µg/mL (≈ 81.7 µM) in the assay with Histoplasma capsulatum. Besides, in the assay on Candida albicans, the inhibition entry is “inactive”. In the assay with Streptococcus pyogenes, the MIC entry was “inactive”.
As for `CC[C@H]1O[C@@H](/C(C)=C/[C@H](C)/C=C/[C@H]2[C@@H](C)[C@@H]2/C=C/[C@@H]2O[C@H](CC(=O)OC)C[C@H](OC(=O)Nc3ccccc3)[C@H]2OC(=O)Nc2ccccc2)CC=C1C`, the MIC in assay [1] was more than 50 µg/mL; with Histoplasma capsulatum it was 25 µg/mL (≈ 34.4 µM). Further, in the assay with Candida albicans, the inhibition result is “inactive”. The MIC result in the assay on Streptococcus pyogenes is “inactive”.
As for `CC[C@H]1O[C@@H](/C(C)=C/[C@H](C)/C=C/[C@H]2[C@@H](C)[C@@H]2/C=C/[C@@H]2O[C@H](CC(=O)O)C[C@H](OC(C)=O)[C@H]2OC(C)=O)CC=C1C` (relative stereo), the MIC turned out to be 3.12 µg/mL (≈ 5.58 µM) in assay [1], 3.12 µg/mL (≈ 5.58 µM) in the assay on Histoplasma capsulatum and 6.25 µg/mL (≈ 11.2 µM) with Streptococcus pyogenes. In addition, in the assay with Candida albicans, the inhibition entry was “inactive”.
`CC[C@H]1O[C@@H](/C(C)=C/[C@H](C)/C=C/[C@H]2[C@@H](C)[C@@H]2/C=C/[C@@H]2O[C@H](CC(=O)NC3CCCCC3)C[C@H](O)[C@H]2O)CC=C1C`: the minimal inhibitory concentration (MIC) was 25 µg/mL (≈ 45 µM) in assay [1] and 3.12 µg/mL (≈ 5.61 µM) with Histoplasma capsulatum. In addition, the inhibition result with Candida albicans was “inactive”.
For the compound `CC[C@H]1O[C@@H](/C(C)=C/[C@H](C)/C=C/[C@H]2[C@@H](C)[C@@H]2/C=C/[C@@H]2O[C@H](CC(=O)N3CCCCC3)C[C@H](O)[C@H]2O)CC=C1C`, the MIC in assay [1] amounted to 0.78 µg/mL (≈ 1.44 µM); in the assay with Histoplasma capsulatum it was 3.12 µg/mL (≈ 5.76 µM); in the assay with Streptococcus pyogenes, 1.56 µg/mL (≈ 2.88 µM). Moreover, the inhibition entry in the assay on Candida albicans was “inactive”.
The corresponding values for `CC[C@H]1O[C@@H](/C(C)=C/[C@H](C)/C=C/[C@H]2[C@@H](C)[C@@H]2/C=C/[C@@H]2O[C@H](CC(=O)NC3CCCCC3)C[C@H](OC(C)=O)[C@H]2OC(C)=O)CC=C1C` are more than 50 µg/mL, more than 50 µg/mL, “inactive” and “inactive”.
With `CCCCNC(=O)C[C@@H]1C[C@H](OC(C)=O)[C@@H](OC(C)=O)[C@H](/C=C/[C@H]2[C@H](C)[C@@H]2/C=C/[C@@H](C)/C=C(\C)[C@H]2CC=C(C)[C@@H](CC)O2)O1`, in the assay with Candida albicans, the inhibition result was “inactive”.

The record behind these values is ChEMBL document CHEMBL3244399, “Antifungal agents. 4. Chemical modification of antibiotics from Polyangium cellulosum var. fulvum. Ester and amide analogues of ambruticin” (1979).
